Assay results reported in patent publication US5710129A, “Inhibitors of SH2-mediated processes” (Ariad Pharmaceuticals, Inc., priority 1995, dated 1998).
pIC50: −log10 of the molar value. “And” between values parts separate entries of the source, which are not always exact repeats. Identical values can stand only once. Like-named read-outs stand apart in the source and are kept apart here. Square brackets hold non-standard residues; d marks the D form. Peptide text beside a SMILES is read from it. * marks the point of attachment. Tyr(3,5-(NO2)2) = N[C@@H](Cc1cc([N+](=O)[O-])c(O)c([N+](=O)[O-])c1)C(=O)O; Acetyl(9-fluorenyl) = O=C(CC1c2ccccc2-c2ccccc21)*; Propanoyl(3,3-Ph2) = O=C(CC(c1ccccc1)c1ccccc1)*; Acetyl(1-naphthyl) = O=C(Cc1cccc2ccccc12)*; Acetyl(2-naphthyl) = O=C(Cc1ccc2ccccc2c1)*; 1Nal = N[C@@H](Cc1cccc2ccccc12)C(=O)O; 2Nal = N[C@@H](Cc1ccc2ccccc2c1)C(=O)O; Fmoc = O=C(OCC1c2ccccc2-c2ccccc21)*; Butanoyl(4-Ph) = O=C(CCCc1ccccc1)*; 2Naphthoyl = O=C(c1ccc2ccccc2c1)*; Hydrocinnamoyl = O=C(CCc1ccccc1)*; X1 = CC(CC(=O)*)c1ccccc1; PhAc = O=C(Cc1ccccc1)*

Experiments:
[1] = target: T1, pp60^src (144-251) (Homo sapiens, UniProt P12931); experiment: Src competitive binding assay, surface plasmon resonance (BIAcore); details: for pIC50: 270 nM protein, hamster Middle-T antigen phosphopeptide as ligand, read-out: Src IC-50
T1 construct: Assays were run in HBS using 270 nM pp60^src (144-251)
Description: (§1) Binding was measured by competition using surface plasmon resonance (Malmqvist, M. (1993) Current Opinions in Immunology 5, 282-286) as implemented in the BIAcore Biosensor (Pharmacia Biosensor, Piscataway, N.J.). […] Results were compared to binding measured in the absence of competitor and expressed as percent inhibition. IC50values reflect the concentration of inhibitor required to reduce binding by 50%. Specifics of individual assays are described below. All asssays were run in HEPES Buffered Saline (HBS) composed of 10 mM HEPES (pH 7.4)/150 mM NaCl/3.4 mM EDTA/0.05% Surfactant P20at 25° C. and a flow rate of 5 uL min^-1.
A p60^src peptide ligand corresponding to the hamster Middle-T antigen [QY(PO4)EEIPI] [SEQ ID NO:22] was synthesized as a part of a larger peptide [Ac-KGGQY(PO4)EEIPI-NH2 ] [SEQ ID NO:23] and used to generate a src-sensitive biosensor surface as described above for tandem ZAP. Assays were run in HBS using 270 nM pp60^src (144-251)±test inhibitor.

[2] = target: T2, pp70^ZAP (1-259) (Homo sapiens, UniProt P43403); experiment: Tandem ZAP competitive binding assay, surface plasmon resonance (BIAcore); details: for pIC50: read-out: N,CZap IC-50
T2 sequence (P43403 1-259): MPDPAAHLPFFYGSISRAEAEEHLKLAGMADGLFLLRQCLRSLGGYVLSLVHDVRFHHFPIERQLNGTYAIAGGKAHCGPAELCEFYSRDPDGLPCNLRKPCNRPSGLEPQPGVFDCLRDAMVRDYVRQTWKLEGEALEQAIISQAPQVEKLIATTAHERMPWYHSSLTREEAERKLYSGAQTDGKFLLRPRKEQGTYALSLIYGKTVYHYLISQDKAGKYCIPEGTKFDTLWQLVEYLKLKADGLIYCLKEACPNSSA
Description: as §1
A pp70^ZAP peptide ligand corresponding to the .zeta.-chain ITAM-1 of the human T-cell receptor [NQLY(PO4)NELNIGRREEY(PO4)DVLD] [SEQ ID NO:20] was synthesized as a part of a larger peptide [Ac-KGGNQLY(PO4)NELNIGRREEY-(PO4)DVLD-NH2 ] [SEQ ID NO:21] and used to generate a ZAP-sensitive biosensor surface. Specifically, a Biosensor Chip CM5was activated with 200 mM EDC/50 mM NHS to generate a surface reactive to primary amines and the ITAM peptide immobilized through the N-terminal lysine. Unreacted sites were blocked with ethanolamine (1M in water) and the chip cleaned of non-covalently bound peptide using 6M guanidine hydrochloride. Assays were run in HBS using 10 nM pp70^ZAP (1-259)±test inhibitor. (The designation "b22" indicates use of a corresponding γ-chain ITAM for the .zeta.-chain ITAM.)

[3] = target: T3, pp72^syk (1-265) (Homo sapiens, UniProt P43405); experiment: Tandem Syk competitive binding assay, surface plasmon resonance (BIAcore); details: for N,CSyk 1%/Min / pIC50: 20 nM protein, γ-chain ITAM of human FcεRI as ligand; for pIC50: read-out: N,CSyk IC-50
T3 construct: Assays were run in HBS using 20 nM pp72^syk (1-265)
Description: as §1
A pp72^syk peptide ligand corresponding to the γ-chain ITAM of human Fcε RI [DGVY(PO4)TGLSTRNQETY(PO4)ETLK] [SEQ ID NO:18] was synthesized as part of a larger peptide [Ac-CGGDGVY(PO4)TGLSTRNQETY-(PO4)ETLK-NH2] [SEQ ID NO:19] and used to generate a Syk-sensitive biosensor surface. Specifically, a Biosensor Chip CM5was activated with 200 mM ethyl-3-(3-dimethylaminopropyl)-carbodiimide hydrochloride (EDC)/50 mM N-hydroxysuccinimide (NHS) to generate a surface reactive to primary amines; treated with ethylenediamine to generate a surface rich in primary amines; activated with m-maleimidobenzoyl-N-hydroxysuccinimide ester (sulfo-MBS; 50 mM in 25 mM NaHCO3) to generate a surface reactive to free thiols; and the ITAM peptide immobilized through the N-terminal cysteine. Unreacted sites were blocked with β-mercaptoethanol and the chip cleaned of noncovalently bound peptide using 6M guanidine hydrochloride. Assays were run in HBS using 20 nM pp72^syk (1-265)±test inhibitor.

[4] = target: T4, pp72^syk (163-265) (Homo sapiens, UniProt P43405); experiment: C-Syk competitive binding assay, surface plasmon resonance (BIAcore); details: 270 nM protein; hemiphosphorylated γ-chain ITAM of human FcεRI as ligand; read-out: CSyk IC-50
T4 construct: Assays were run in HBS using 270 nM pp72^syk (163-265)
Description: as §1
A pp72^syk peptide ligand corresponding to a hemiphosphorylated γ-chain ITAM of human Fcε RI [DGVY(PO4)TGLSTRNQETYETLK] was synthesized as part of a larger peptide [Ac-CGGDGVY(PO4)TGLSTRNQETYETLK-NH2 ] and used to generate a C-Syk-sensitive biosensor surface as described above for tandem syk. Assays were run in HBS using 270 nM pp72^syk (163-265)±test inhibitor.

[5] = 10 nM protein, ζ-chain ITAM-1 of human T-cell receptor as ligand

T1 sequence (P12931 144-251): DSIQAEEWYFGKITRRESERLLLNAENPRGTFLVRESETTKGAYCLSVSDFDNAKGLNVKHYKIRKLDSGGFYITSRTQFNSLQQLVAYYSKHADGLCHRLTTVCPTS

Structure (SMILES)	pIC50 [1]	pIC50 [3]	pIC50 [4]	pIC50 [2, 5]	also measured
CC(C)C[C@H](NC(=O)[C@@H](NC(=O)[C@H](CCC(=O)O)NC(=O)[C@H](Cc1cc([N+](=O)[O-])c(O)c([N+](=O)[O-])c1)NC(=O)c1ccc2ccccc2c1)[C@@H](C)O)C(N)=O (2Naphthoyl-[Tyr(3,5-(NO2)2)]ETL-NH2)	< 3.00	3.42	4.46		N,CZap inhibition ([2]; @ 100 (μM)): ni; N,CSyk 1%/Min [3]: 67 µM
CC(=O)N[C@@H](Cc1ccccc1)C(=O)N[C@@H](Cc1cc([N+](=O)[O-])c(O)c([N+](=O)[O-])c1)C(=O)N[C@@H](CCC(=O)O)C(=O)N[C@H](C(=O)N[C@@H](CC(C)C)C(N)=O)[C@@H](C)O (Ac-F[Tyr(3,5-(NO2)2)]ETL-NH2)		< 4.00	3.70	< 3.00	
CC(=O)N[C@@H](Cc1cccc2ccccc12)C(=O)N[C@@H](Cc1cc([N+](=O)[O-])c(O)c([N+](=O)[O-])c1)C(=O)N[C@@H](CCC(=O)O)C(=O)N[C@H](C(=O)N[C@@H](CC(C)C)C(N)=O)[C@@H](C)O (Ac-[1Nal][Tyr(3,5-(NO2)2)]ETL-NH2)	< 3.30	3.10	3.70	< 4.00	
CC(=O)N[C@@H](Cc1ccc2ccccc2c1)C(=O)N[C@@H](Cc1cc([N+](=O)[O-])c(O)c([N+](=O)[O-])c1)C(=O)N[C@@H](CCC(=O)O)C(=O)N[C@H](C(=O)N[C@@H](CC(C)C)C(N)=O)[C@@H](C)O (Ac-[2Nal][Tyr(3,5-(NO2)2)]ETL-NH2)		< 4.00	< 3.30	< 3.30	
CC(=O)N[C@H](Cc1ccccc1)C(=O)N[C@@H](Cc1cc([N+](=O)[O-])c(O)c([N+](=O)[O-])c1)C(=O)N[C@@H](CCC(=O)O)C(=O)N[C@H](C(=O)N[C@@H](CC(C)C)C(N)=O)[C@@H](C)O (Ac-[dF][Tyr(3,5-(NO2)2)]ETL-NH2)	3.30		4.30	< 4.00	
CC(C)C[C@H](NC(=O)[C@@H](NC(=O)[C@H](CCC(=O)O)NC(=O)[C@H](Cc1cc([N+](=O)[O-])c(O)c([N+](=O)[O-])c1)NC(=O)CCc1ccccc1)[C@@H](C)O)C(N)=O (Hydrocinnamoyl-[Tyr(3,5-(NO2)2)]ETL-NH2)	3.39	3.34	4.96	< 4.00	
CC(C)C[C@H](NC(=O)[C@@H](NC(=O)[C@H](CCC(=O)O)NC(=O)[C@H](Cc1cc([N+](=O)[O-])c(O)c([N+](=O)[O-])c1)NC(=O)Cc1ccccc1)[C@@H](C)O)C(N)=O (PhAc-[Tyr(3,5-(NO2)2)]ETL-NH2)	< 3.00	< 3.00	4.15	< 3.00	
CC(C)C[C@H](NC(=O)[C@@H](NC(=O)[C@H](CCC(=O)O)NC(=O)[C@H](Cc1cc([N+](=O)[O-])c(O)c([N+](=O)[O-])c1)NC(=O)CC(C)c1ccccc1)[C@@H](C)O)C(N)=O (some centres unmarked) (X1-[Tyr(3,5-(NO2)2)]ETL-NH2)					N,CSyk 1%/Min [3]: 14 µM
CC(C)C[C@H](NC(=O)[C@@H](NC(=O)[C@H](CCC(=O)O)NC(=O)[C@H](Cc1cc([N+](=O)[O-])c(O)c([N+](=O)[O-])c1)NC(=O)Cc1cccc2ccccc12)[C@@H](C)O)C(N)=O ({Acetyl(1-naphthyl)}-[Tyr(3,5-(NO2)2)]ETL-NH2)	< 3.00	4.00	4.62	< 4.00	
CC(C)C[C@H](NC(=O)[C@@H](NC(=O)[C@H](CCC(=O)O)NC(=O)[C@H](Cc1cc([N+](=O)[O-])c(O)c([N+](=O)[O-])c1)NC(=O)Cc1ccc2ccccc2c1)[C@@H](C)O)C(N)=O ({Acetyl(2-naphthyl)}-[Tyr(3,5-(NO2)2)]ETL-NH2)	3.30		4.70	< 4.00	N,CSyk percent inhibition ([3]; @ 50 (μM)): 30%
CC(C)C[C@H](NC(=O)[C@@H](NC(=O)[C@H](CCC(=O)O)NC(=O)[C@H](Cc1cc([N+](=O)[O-])c(O)c([N+](=O)[O-])c1)NC(=O)CC1c2ccccc2-c2ccccc21)[C@@H](C)O)C(N)=O ({Acetyl(9-fluorenyl)}-[Tyr(3,5-(NO2)2)]ETL-NH2)	3.15	4.30	4.59	< 4.00	
CC(C)C[C@H](NC(=O)[C@@H](NC(=O)[C@H](CCC(=O)O)NC(=O)[C@H](Cc1cc([N+](=O)[O-])c(O)c([N+](=O)[O-])c1)NC(=O)CCCc1ccccc1)[C@@H](C)O)C(N)=O ({Butanoyl(4-Ph)}-[Tyr(3,5-(NO2)2)]ETL-NH2; N-terminus assumed)					N,CSyk 1%/Min [3]: 48 µM
CC(C)C[C@H](NC(=O)[C@@H](NC(=O)[C@H](CCC(=O)O)NC(=O)[C@H](Cc1cc([N+](=O)[O-])c(O)c([N+](=O)[O-])c1)NC(=O)CC(c1ccccc1)c1ccccc1)[C@@H](C)O)C(N)=O ({Propanoyl(3,3-Ph2)}-[Tyr(3,5-(NO2)2)]ETL-NH2)	< 3.00	4.00	4.82		N,CZap inhibition ([2]; @ 1000 (μM)): ni
CC(C)C[C@H](NC(=O)[C@@H](NC(=O)[C@H](CC(=O)O)NC(=O)[C@H](Cc1cc([N+](=O)[O-])c(O)c([N+](=O)[O-])c1)NC(=O)OCC1c2ccccc2-c2ccccc21)C(C)C)C(N)=O [DVLNH2] (Fmoc-[Tyr(3,5-(NO2)2)]DVL-NH2)		4.62 and 4.52		< 4.00	Src percent inhibition ([1]; @ 100 (μM)): 25%
CC(C)C[C@H](NC(=O)[C@@H](NC(=O)[C@H](CCC(=O)O)NC(=O)[C@H](Cc1cc([N+](=O)[O-])c(O)c([N+](=O)[O-])c1)NC(=O)OCC1c2ccccc2-c2ccccc21)[C@@H](C)O)C(N)=O [ETLNH2] (Fmoc-[Tyr(3,5-(NO2)2)]ETL-NH2)	< 3.00	4.10 and 4.09	4.52	3.46	pIC50 ([2]; b22: corresponding γ-chain ITAM used for the ζ-chain ITAM): 4.70
CC(C)C[C@H](NC(=O)[C@H](CCC(=O)O)NC(=O)[C@H](CC(N)=O)NC(=O)[C@H](Cc1cc([N+](=O)[O-])c(O)c([N+](=O)[O-])c1)NC(=O)OCC1c2ccccc2-c2ccccc21)C(N)=O [NELNH2] (Fmoc-[Tyr(3,5-(NO2)2)]NEL-NH2)					Src percent inhibition ([1]; @ 50 (μM)): 5%; N,CZap percent inhibition ([2]; @ 50 (μM)): 10%; N,CSyk percent inhibition ([3]; @ 50 (μM)): 15%
CC(C)C[C@H](NC(=O)CNC(=O)[C@@H](NC(=O)[C@H](Cc1cc([N+](=O)[O-])c(O)c([N+](=O)[O-])c1)NC(=O)OCC1c2ccccc2-c2ccccc21)[C@@H](C)O)C(N)=O [TGLNH2] (Fmoc-[Tyr(3,5-(NO2)2)]TGL-NH2)					N,CSyk percent inhibition ([3]; @ 23 (μM)): 35%
